Paper PMC9170038
Values belong to the molecule of their own block, whether it stands above or below them.

What was measured:
[1] = system: Tryptophan aptamer, RNA-MaP condition construct (RNA, aptamer) GGAAAGGCGAGCGGCCGCCACUGUUCGCAGGACCGGGCUCGCCAAAGAAACAACAACAACAAC; test: DMS chemical mapping; details: 80 mM KCl, 4 mM MgCl2; 100 mM Tris-HCl, pH 7.5, 37 °C
[2] = system: Tryptophan aptamer, Light-up construct (RNA, aptamer) GGGAACGUCUCCGAGUAGGAGACGAAGGGAGAGUGGCAGCUUACAAACUACAGUUGCGGCCGCCACUGCGAAGGACGGGUCCCUCGAAAGAGGUUGAGUAGAGUGUGAGCGCAGGACCGGGCAACAGUAGUAAGUGGGCUGUUGCUUUUCCAAGCUUAUCGAGUAGAUAAGCAAAAAGAAACAACAACAACAAC; test: DMS chemical mapping; details: 5 mM MgCl2, 1x PBS, pH 6.1, 24 °C
[3] = system: BH_E029 (RNA, aptamer) GGGAGAGUGGCAGCUUACAACGUAACGAUGCGGCCGCCACUGAUCCGACUGGUUAACAGAAAGUCCUGACCAGGUAACGAAUGGUCAGGACCGGGCAUUGUUACGAAGUGGGCUGUUGCUUUUCC; test: light-up fluorescence kinetics (malachite green); details: 5 mM MgCl2, 1x PBS, pH 6.1, 2.4 mM Trp with malachite green present
[4] = target: T1, MS2 coat protein, dlFG mutant (Escherichia phage MS2, UniProt P03612, del68-81insG); test: 4 mM Mg2+; FMN 200 uM; RNA-MaP array; 100 mM Tris-HCl pH 7.5, 80 mM KCl, 4 mM MgCl2, 0.1 mg/mL BSA, 1 mM DTT, 0.01 mg/mL yeast tRNA, 0.01% Tween-20; protein 1.5 nM to 3 uM; 37 C (Table S3); details: chain copies: 2; label: tethered by stalled RNA polymerase
[5] = target: T1, MS2 coat protein, dlFG mutant; test: 4 mM Mg2+; theophylline 2 mM; RNA-MaP array; 100 mM Tris-HCl pH 7.5, 80 mM KCl, 4 mM MgCl2, 0.1 mg/mL BSA, 1 mM DTT, 0.01 mg/mL yeast tRNA, 0.01% Tween-20; protein 1.5 nM to 3 uM; 37 C (Table S3); details: chain copies: 2; label: tethered by stalled RNA polymerase

Kd [1]: 12.09 ± 10.50/-5.19 μM | Kd [2]: 11.59 ± 9.49/-5.00 μM | binding [3]: yes
Molecule: N[C@@H](Cc1c[nH]c2ccccc12)C(=O)O

B1: Eterna 6103763 (Same State NG 3) (ssRNA)
RNA: CAUUGACGACAAUUACAUGAGGAUCACCCAUGUUUUGGGAUGCAGGAUAUGUGGUAUAUUAAUUAACAGAAGGGCAAUAAUUUU
Kd [4]: 35.5 nM

B2: Eterna 7646211 (Same State - Theophylline A) (ssRNA)
RNA: CAUACUUUAGUAUGUAAUGUGGACAGUGAUACCAGAUACGAAAGUAUCCCUUGGCAGCACAACAUGAGGAUCACCCAUGUAUUUU
Kd [5]: 13.4 nM
